Measured values published in patent US11147272B2, “Pyridone compounds and agricultural and horticultural fungicides comprising the same as active ingredients” (MITSUI CHEMICALS AGRO, INC., priority 2017, dated 2021).

Legend:
Phytophthora infestans = assay: whole plant or invertebrate; type: in vivo; conditions: 250 ppm drug solution sprayed on test plant
Plasmopara viticola = assay: Test Example G: Downy mildew on vine; conditions: 250 ppm drug solution sprayed (2.5 ml/pot), grape Neomuscat, 7 to 10 days after inoculation
Puccinia recondita = assay: Test Example E: Brown rust on wheat; type: in vivo; conditions: 250 ppm drug solution sprayed on test plant
[1] = test system: Blumeria graminis f. sp. hordei; assay: Test Example D: Powdery mildew on barley; conditions: 250 ppm drug solution sprayed on test plant
Botrytis cinerea = assay: Test Example B: Gray mold on tomato; conditions: 250 ppm drug solution sprayed on test plant
[2] = test system: Colletotrichum orbiculare; assay: Test Example H: Anthracnose on cucumber; conditions: 250 ppm drug solution sprayed (2.5 ml/pot), cucumber Sagami Hanjiro, 6 to 10 days after inoculation
Magnaporthe grisea = assay: whole plant or invertebrate; type: in vivo; conditions: 250 ppm drug solution sprayed on test plant
Alternaia brassicicola = assay: Test Example C: Alternaria sooty spot on cabbage; type: in vivo; conditions: 250 ppm drug solution sprayed on test plant
Text: Seeds of a test plant (cabbage variety: Shikidori) were planted and cultivated until the cotyledons extended.
<Control Value> Control value=100{1−(n/3)}

Structure (SMILES)	Test F control value (Phytophthora infestans)	Test G control value (Plasmopara viticola)	Test E control value (Puccinia recondita)	Test D control value [1]	Test B control value (Botrytis cinerea)	Test H control value [2]	Test A control value (Magnaporthe grisea)	Test C control value (Alternaia brassicicola)
CCC(O)c1cc(Cl)c(=O)n(C)c1-c1c(F)cc(F)cc1F (centres unmarked) [compound 490]	L (50% or less control value)	H (more than 50% control value)	H (more than 50% control value)	L (50% or less control value)	L (50% or less control value)	L (50% or less control value)	L (50% or less control value)	L (50% or less control value)
CCCc1ccc(=O)n(CC(F)F)c1-c1c(F)cccc1F [compound 491]	L (50% or less control value)	L (50% or less control value)	H (more than 50% control value)	H (more than 50% control value)	H (more than 50% control value)	L (50% or less control value)	L (50% or less control value)	H (more than 50% control value)
CCCc1cc(Cl)c(=O)n(CC(F)F)c1-c1c(F)cccc1F [compound 492]	L (50% or less control value)	H (more than 50% control value)	H (more than 50% control value)	H (more than 50% control value)	H (more than 50% control value)	H (more than 50% control value)	H (more than 50% control value)	H (more than 50% control value)
CCCc1cc(Br)c(=O)n(CC(F)F)c1-c1c(F)cccc1F [compound 493]	L (50% or less control value)	H (more than 50% control value)	H (more than 50% control value)	H (more than 50% control value)	H (more than 50% control value)	H (more than 50% control value)	H (more than 50% control value)	H (more than 50% control value)
CCCc1cc(I)c(=O)n(CC(F)F)c1-c1c(F)cccc1F [compound 494]	L (50% or less control value)	H (more than 50% control value)	H (more than 50% control value)	H (more than 50% control value)	H (more than 50% control value)	H (more than 50% control value)	H (more than 50% control value)	H (more than 50% control value)
CCC(=O)c1cc(Cl)c(=O)n(C)c1-c1c(F)cc(F)cc1F [compound 495]	L (50% or less control value)	L (50% or less control value)	H (more than 50% control value)	H (more than 50% control value)	H (more than 50% control value)	L (50% or less control value)	L (50% or less control value)	H (more than 50% control value)
COC(c1cc(Cl)c(=O)n(C)c1-c1c(F)cc(F)cc1F)C(C)C (centres unmarked) [compound 496]	L (50% or less control value)	H (more than 50% control value)	H (more than 50% control value)	H (more than 50% control value)	H (more than 50% control value)	H (more than 50% control value)	H (more than 50% control value)	H (more than 50% control value)
CCOC(c1cc(Cl)c(=O)n(C)c1-c1c(F)cc(F)cc1F)C(C)C (centres unmarked) [compound 497]	L (50% or less control value)	H (more than 50% control value)	H (more than 50% control value)	H (more than 50% control value)	H (more than 50% control value)	H (more than 50% control value)	H (more than 50% control value)	H (more than 50% control value)
COc1cc(F)c(-c2c(C(OC)C(C)C)cc(Cl)c(=O)n2C)c(F)c1 (centres unmarked) [compound 498]	L (50% or less control value)	L (50% or less control value)	H (more than 50% control value)	L (50% or less control value)	H (more than 50% control value)	H (more than 50% control value)	H (more than 50% control value)	H (more than 50% control value)
CCOC(c1cc(Cl)c(=O)n(C)c1-c1c(F)cc(OC)cc1F)C(C)C (centres unmarked) [compound 499]	L (50% or less control value)	H (more than 50% control value)	H (more than 50% control value)	H (more than 50% control value)	H (more than 50% control value)	H (more than 50% control value)	H (more than 50% control value)	H (more than 50% control value)
CCn1c(-c2c(F)cc(OC)cc2F)c(C(C)(O)CC)cc(Br)c1=O (centres unmarked) [compound 500]	L (50% or less control value)	H (more than 50% control value)	H (more than 50% control value)	L (50% or less control value)	H (more than 50% control value)	H (more than 50% control value)	H (more than 50% control value)	H (more than 50% control value)
CCn1c(-c2c(F)cc(F)cc2F)c(C(OC)C(C)C)cc(Br)c1=O (centres unmarked) [compound 501]	L (50% or less control value)	L (50% or less control value)	H (more than 50% control value)	H (more than 50% control value)	H (more than 50% control value)	H (more than 50% control value)	H (more than 50% control value)	H (more than 50% control value)
CCC(OC)c1cc(Cl)c(=O)n(C)c1-c1c(F)cc(F)cc1F (centres unmarked) [compound 502]	L (50% or less control value)	H (more than 50% control value)	H (more than 50% control value)	H (more than 50% control value)	H (more than 50% control value)	H (more than 50% control value)	H (more than 50% control value)	H (more than 50% control value)
